{"source": "patent EP0347459A1", "about": "“CEPHALOSPORIN COMPOUNDS OR THEIR SALTS, PROCESS FOR THEIR PREPARATION, AND PHARMACEUTICAL COMPOSITIONS” (TEIJIN LIMITED, priority 1987, dated 1988)", "type_in_all_cases": "cell-based", "key": {"P.aeruginosa ATCC27577": {"tested_on": "P.aeruginosa ATCC27577", "assay": "MIC values of 10 kinds of Pseudomonas aeruginosa", "conditions": "16 h, P.aeruginosa ATCC27577 (Table II), read-out: MIC values", "experimental": "(§1) An in vitro antibacterial activity was measured by an agar disc dilution method.\n(§2) Varied test bacteria were cultivated overnight in triptophane-soybroth. A Mueller Hinton agar containing the compound of this invention in varied concentrations was streaked with one platinum loopful of each of the bacteria (number of living cells 10^6/ml).\n(§3) MIC values of 10 kinds of Pseudomonas aeruginosa were measured for Compound III, Comparative Example B and CAZ."}, "P.aeruginosa ATCC27318": {"tested_on": "P.aeruginosa ATCC27318", "assay": "MIC values of 10 kinds of Pseudomonas aeruginosa", "conditions": "16 h, P.aeruginosa ATCC27318 (Table II), read-out: MIC values", "experimental": "as §1, §2, §3"}, "P.aeruginosa 64": {"tested_on": "P.aeruginosa 64", "assay": "MIC values of 10 kinds of Pseudomonas aeruginosa", "conditions": "Pseudomonas aeruginosa, 16 h; P.aeruginosa 64 (Table II); read-out: MIC values", "experimental": "as §1, §2, §3"}, "P.aeruginosa N-2": {"tested_on": "P.aeruginosa N-2", "assay": "MIC values of 10 kinds of Pseudomonas aeruginosa", "conditions": "N2, 16 h, P.aeruginosa N-2 (Table II), read-out: MIC values", "experimental": "as §1, §2, §3"}, "P.aeruginosa Tid53": {"tested_on": "P.aeruginosa Tid53", "assay": "MIC values of 10 kinds of Pseudomonas aeruginosa", "conditions": "16 h, P.aeruginosa Tid53 (Table II), read-out: MIC values", "experimental": "as §1, §2, §3"}, "P.aeruginosa N-26": {"tested_on": "P.aeruginosa N-26", "assay": "MIC values of 10 kinds of Pseudomonas aeruginosa", "conditions": "N26, 16 h, P.aeruginosa N-26 (Table II), read-out: MIC values", "experimental": "as §1, §2, §3"}, "P.aeruginosa NO. 97": {"tested_on": "P.aeruginosa NO. 97", "assay": "MIC values of 10 kinds of Pseudomonas aeruginosa", "conditions": "16 h, P.aeruginosa NO. 97 (Table II), read-out: MIC values", "experimental": "as §1, §2, §3"}, "P.aeruginosa 0-11": {"tested_on": "P.aeruginosa 0-11", "assay": "MIC values of 10 kinds of Pseudomonas aeruginosa", "conditions": "Pseudomonas aeruginosa, 011, 16 h; P.aeruginosa 0-11 (Table II); read-out: MIC values", "experimental": "as §1, §2, §3"}, "P.aeruginosa 88": {"tested_on": "P.aeruginosa 88", "assay": "MIC values of 10 kinds of Pseudomonas aeruginosa", "conditions": "Pseudomonas aeruginosa, 16 h; P.aeruginosa 88 (Table II); read-out: MIC values", "experimental": "as §1, §2, §3"}, "P.aeruginosa N-3": {"tested_on": "P.aeruginosa N-3", "assay": "MIC values of 10 kinds of Pseudomonas aeruginosa", "conditions": "N3, 16 h, P.aeruginosa N-3 (Table II), read-out: MIC values", "experimental": "as §1, §2, §3"}, "P.aeruginosa NCTC1049": {"tested_on": "P.aeruginosa NCTC1049", "assay": "In vitro antibacterial activity, agar disc dilution method", "conditions": "Pseudomonas aeruginosa; P.aeruginosa NCTC1049; Mueller Hinton agar, 10^6/ml, 37°C for 16 hours; read-out: minimum growth inhibitory concentration (MIC)", "experimental": "as §1, §2"}, "M.luteus ATCC9341": {"tested_on": "M.luteus ATCC9341", "assay": "In vitro antibacterial activity, agar disc dilution method", "conditions": "Micrococcus luteus; M.luteus ATCC9341; Mueller Hinton agar, 10^6/ml, 37°C for 16 hours; read-out: minimum growth inhibitory concentration (MIC)", "experimental": "as §1, §2"}, "S.aureus 209p NIHJ JC1": {"tested_on": "S.aureus 209p NIHJ JC1", "assay": "In vitro antibacterial activity, agar disc dilution method", "conditions": "Staphylococcus aureus; S.aureus 209p NIHJ JC1; Mueller Hinton agar, 10^6/ml, 37°C for 16 hours; read-out: minimum growth inhibitory concentration (MIC)", "experimental": "as §1, §2"}, "S.typhi 901": {"tested_on": "S.typhi 901", "assay": "In vitro antibacterial activity, agar disc dilution method", "conditions": "Salmonella enterica, 16 h, read-out: minimum growth inhibitory concentration (MIC)", "experimental": "as §1, §2"}, "S.enteritidis G14": {"tested_on": "S.enteritidis G14", "assay": "In vitro antibacterial activity, agar disc dilution method", "conditions": "Salmonella enterica; S.enteritidis G14; Mueller Hinton agar, 10^6/ml, 37°C for 16 hours; read-out: minimum growth inhibitory concentration (MIC)", "experimental": "as §1, §2"}, "P.vulgalis OX-11": {"tested_on": "P.vulgalis OX-11", "assay": "In vitro antibacterial activity, agar disc dilution method", "conditions": "P.vulgalis OX-11; Mueller Hinton agar, 10^6/ml, 37°C for 16 hours; read-out: minimum growth inhibitory concentration (MIC)", "experimental": "as §1, §2"}, "K.pneumoniae PCI602": {"tested_on": "K.pneumoniae PCI602", "assay": "In vitro antibacterial activity, agar disc dilution method", "conditions": "Klebsiella pneumoniae; K.pneumoniae PCI602; Mueller Hinton agar, 10^6/ml, 37°C for 16 hours; read-out: minimum growth inhibitory concentration (MIC)", "experimental": "as §1, §2"}, "P.morganii IFO3445": {"tested_on": "P.morganii IFO3445", "assay": "In vitro antibacterial activity, agar disc dilution method", "conditions": "Morganella morganii; P.morganii IFO3445; Mueller Hinton agar, 10^6/ml, 37°C for 16 hours; read-out: minimum growth inhibitory concentration (MIC)", "experimental": "as §1, §2"}, "S.pyogenes Cook": {"tested_on": "S.pyogenes Cook", "assay": "In vitro antibacterial activity, agar disc dilution method", "conditions": "Streptococcus pyogenes; S.pyogenes Cook; Mueller Hinton agar, 10^6/ml, 37°C for 16 hours; read-out: minimum growth inhibitory concentration (MIC)", "experimental": "as §1, §2"}, "S.marcescens IAM1184": {"tested_on": "S.marcescens IAM1184", "assay": "In vitro antibacterial activity, agar disc dilution method", "conditions": "Serratia marcescens; S.marcescens IAM1184; Mueller Hinton agar, 10^6/ml, 37°C for 16 hours; read-out: minimum growth inhibitory concentration (MIC)", "experimental": "as §1, §2"}, "S. aureus Terajima": {"tested_on": "S. aureus Terajima", "assay": "In vitro antibacterial activity, agar disc dilution method", "conditions": "Staphylococcus aureus; S. aureus Terajima; Mueller Hinton agar, 10^6/ml, 37°C for 16 hours; read-out: minimum growth inhibitory concentration (MIC)", "experimental": "as §1, §2"}, "P.aeruginosa IFO3445": {"tested_on": "P.aeruginosa IFO3445", "assay": "In vitro antibacterial activity, agar disc dilution method", "conditions": "Pseudomonas aeruginosa; P.aeruginosa IFO3445; Mueller Hinton agar, 10^6/ml, 37°C for 16 hours; read-out: minimum growth inhibitory concentration (MIC)", "experimental": "as §1, §2"}, "E.cloacae 963": {"tested_on": "E.cloacae 963", "assay": "In vitro antibacterial activity, agar disc dilution method", "conditions": "Enterobacter cloacae; E.cloacae 963; Mueller Hinton agar, 10^6/ml, 37°C for 16 hours; read-out: minimum growth inhibitory concentration (MIC)", "experimental": "as §1, §2"}, "P.aeruginosa PAD1": {"tested_on": "P.aeruginosa PAD1", "assay": "In vitro antibacterial activity, agar disc dilution method", "conditions": "Pseudomonas aeruginosa; P.aeruginosa PAD1; Mueller Hinton agar, 10^6/ml, 37°C for 16 hours; read-out: minimum growth inhibitory concentration (MIC)", "experimental": "as §1, §2"}}}
{"compound": "CC(C)(ON=C(C(=O)NC1C(=O)N2C(C(=O)[O-])=C(C[n+]3ccc4cc(O)c(O)cc4c3)CSC12)c1nsc(N)n1)C(=O)O", "note": "[Compound III, (6R,7R)-7-[(Z)-2-(5-amino-1,2,4-thiadiazol-3-yl)-2-(2-carboxypropyl-2-yloxyimino)acetamide]-3-(6,7-dihydroxy-2-isoquinolinium)methyl-3-ce phem-4-carboxylate]", "values": [{"measurement": "MIC", "setting": "P.aeruginosa ATCC27577", "result": 5, "unit": "ng/mL"}, {"measurement": "MIC", "setting": "P.aeruginosa ATCC27318", "result": 12.5, "unit": "ng/mL"}, {"measurement": "MIC", "setting": "P.aeruginosa 64", "result": 12.5, "unit": "ng/mL"}, {"measurement": "MIC", "setting": "P.aeruginosa N-2", "result": 25, "unit": "ng/mL"}, {"measurement": "MIC", "setting": "P.aeruginosa Tid53", "result": 5, "unit": "ng/mL"}, {"measurement": "MIC", "setting": "P.aeruginosa N-26", "result": 12.5, "unit": "ng/mL"}, {"measurement": "MIC", "setting": "P.aeruginosa NO. 97", "result": 5, "unit": "ng/mL"}, {"measurement": "MIC", "setting": "P.aeruginosa 0-11", "result": 5, "unit": "ng/mL"}, {"measurement": "MIC", "setting": "P.aeruginosa 88", "result": 12.5, "unit": "ng/mL"}, {"measurement": "MIC", "setting": "P.aeruginosa N-3", "result": 12.5, "unit": "ng/mL"}, {"measurement": "MIC", "setting": "P.aeruginosa NCTC1049", "result": 5, "unit": "ng/mL"}, {"measurement": "MIC", "setting": "M.luteus ATCC9341", "result": 3100, "unit": "ng/mL"}, {"measurement": "MIC", "setting": "S.aureus 209p NIHJ JC1", "result": 12500, "unit": "ng/mL"}, {"measurement": "MIC", "setting": "S.typhi 901", "result": 5, "unit": "ng/mL"}, {"measurement": "MIC", "setting": "S.enteritidis G14", "result": 5, "unit": "ng/mL"}, {"measurement": "MIC", "setting": "P.vulgalis OX-11", "result": 5, "unit": "ng/mL"}, {"measurement": "MIC", "setting": "K.pneumoniae PCI602", "result": 5, "unit": "ng/mL"}, {"measurement": "MIC", "setting": "P.morganii IFO3445", "result": 5, "unit": "ng/mL"}, {"measurement": "MIC", "setting": "S.pyogenes Cook", "result": 1600, "unit": "ng/mL"}, {"measurement": "MIC", "setting": "S.marcescens IAM1184", "result": 5, "unit": "ng/mL"}, {"measurement": "MIC", "setting": "S. aureus Terajima", "result": 3100, "unit": "ng/mL"}, {"measurement": "MIC", "setting": "P.aeruginosa IFO3445", "result": 12.5, "unit": "ng/mL"}, {"measurement": "MIC", "setting": "E.cloacae 963", "result": 5, "unit": "ng/mL"}, {"measurement": "MIC", "setting": "P.aeruginosa PAD1", "result": 12.5, "unit": "ng/mL"}]}
